Source: publication PMC6754136 (PLoS ONE, 2019)
“Also recorded” adds a separate entry of the source.

Experiments:
[1] = target: recombinant human PDE5 (Homo sapiens, UniProt O76074); assay: in vitro PDE5 kinetics assay (nonlinear regression, AICc model comparison); format: biochemical
Description: guidelines were considered in the description of the following enzyme activity assays. […] For kinetics assays, 0.015, 0.05, and 0.2 μM of compounds 3 and 7 were used. […] Maximum DMSO concentration was 0.1% of the final reaction volume for all samples. […] The final reaction volume was 100 μL. Reactions were stopped with the addition of 100 μL of 0.1 M HCl and neutralized by adding 0.1 M NaOH until the pH was 7. […] Reaction mixture components were separated with a ramp gradient of solvent A and B run at a flow rate of 0.5 mL/min as follows: 0-4 minutes 0% B, 4-7 minutes 0-95% B, 7-8 minutes 95% B, 8-11.1 minutes 0% B. GMP was measured using selected reaction monitoring in positive mode for a centroid center mass of 152. […] Top value was constrained to 100, all other parameters were unconstrained. To obtain the dose-response curves for visual confirmation of the best-fit line, we executed a nonlinear regression fitting using the log(inhibitor) vs. response-variable slope (four parameters) equation in Prism. […] AICc analysis (built into Prism) was used to confirm the best-fitting inhibition model. […] Inhibition models were also compared via visual inspection of the fit of the calculated curves on the Michaelis-Menten plots.

[2] = target: T1, partially purified recombinant human PDE6C (Homo sapiens, UniProt P51160); assay: PDE6C inhibition assay (GMP production); format: biochemical
T1 construct: partially purified recombinant full-length human PDE6C; purchased SB Drug Discovery; host or cells: insect cells
T1 sequence (P51160 whole entry): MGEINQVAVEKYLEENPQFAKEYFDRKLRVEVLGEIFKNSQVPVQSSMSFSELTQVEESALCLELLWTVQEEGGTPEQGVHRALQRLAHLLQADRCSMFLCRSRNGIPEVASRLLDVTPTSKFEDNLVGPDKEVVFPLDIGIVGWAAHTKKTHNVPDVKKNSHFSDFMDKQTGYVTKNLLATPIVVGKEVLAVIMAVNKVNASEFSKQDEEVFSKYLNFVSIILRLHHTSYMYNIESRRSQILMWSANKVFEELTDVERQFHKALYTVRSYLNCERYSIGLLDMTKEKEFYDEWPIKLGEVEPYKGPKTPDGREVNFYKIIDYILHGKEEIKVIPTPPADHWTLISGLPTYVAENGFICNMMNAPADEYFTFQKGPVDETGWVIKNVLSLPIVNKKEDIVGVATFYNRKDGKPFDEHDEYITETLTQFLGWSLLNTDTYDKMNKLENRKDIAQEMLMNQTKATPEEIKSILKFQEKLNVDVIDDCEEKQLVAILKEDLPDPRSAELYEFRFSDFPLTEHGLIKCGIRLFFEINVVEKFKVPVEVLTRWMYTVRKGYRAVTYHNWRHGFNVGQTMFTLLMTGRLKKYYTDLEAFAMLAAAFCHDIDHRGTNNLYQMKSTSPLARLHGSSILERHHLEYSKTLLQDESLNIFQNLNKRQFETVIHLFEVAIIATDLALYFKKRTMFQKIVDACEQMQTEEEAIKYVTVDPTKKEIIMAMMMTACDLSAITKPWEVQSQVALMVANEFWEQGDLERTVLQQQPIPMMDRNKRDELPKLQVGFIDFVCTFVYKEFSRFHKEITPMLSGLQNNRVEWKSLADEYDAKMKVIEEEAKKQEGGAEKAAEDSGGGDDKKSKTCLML
Description: PDE6C inhibition was measured using the same method as described for PDE5 with modifications. […] The final reaction volume was 50 μL. […] Reactions were stopped as described above for PDE5 enzyme assays, and GMP was quantified as described above. […] The amount of GMP produced in these samples was subtracted from all samples before normalizing against untreated controls.

With `COc1ccc(-c2oc3c(CC=C(C)C)c(O)cc(O)c3c(=O)c2OCCCO)cc1` [Compound 7, 3-O-(3-Hydroxypropyl)-Icaritin] the Ki [1] was 36 ± 7 nM, the Preferred model ([1]; AICc comparison of competitive vs noncompetitive inhibition) was “Competitive inhibition” and the Preferred model ([1]; AICc comparison of competitive vs uncompetitive inhibition) was “Competitive inhibition”. The “probability that the competitive inhibition model is correct” value ([1]; AICc, compared to a noncompetitive or uncompetitive model) was greater than 99%, the “Probability it is correct (competitive inhibition)” value ([1]; AICc, competitive vs noncompetitive inhibition) was greater than 99.99% and the “Probability it is correct (competitive inhibition)” value ([1]; AICc, competitive vs uncompetitive inhibition) was greater than 99.99%. The mode of inhibition ([1]; Lineweaver-Burk plot and AICc analysis) was “competitive inhibition as the best fitting model; also recorded: partially competitive model”, the “specificity for PDE5 over PDE6C” value [2] was “does not show this specificity” and the “PDE6C inhibition, statistical significance” value ([2]; at 50x the PDE5 IC50, vs theoretical uninhibited mean of 100%) was “significantly inhibits PDE6C activity”.
